Results on 24 compounds are retold here after US7109193B2, “Tricyclic diazepines tocolytic oxytocin receptor antagonists” (Wyeth, priority 2001, dated 2006).

The target in this assay is T1, human vasopressin V1a receptor subtype (Homo sapiens, UniProt P37288).
T1 construct: host or cells: CHO cells (pZeoSV vector for the Thibonnier line)
T1 sequence (P37288 whole entry): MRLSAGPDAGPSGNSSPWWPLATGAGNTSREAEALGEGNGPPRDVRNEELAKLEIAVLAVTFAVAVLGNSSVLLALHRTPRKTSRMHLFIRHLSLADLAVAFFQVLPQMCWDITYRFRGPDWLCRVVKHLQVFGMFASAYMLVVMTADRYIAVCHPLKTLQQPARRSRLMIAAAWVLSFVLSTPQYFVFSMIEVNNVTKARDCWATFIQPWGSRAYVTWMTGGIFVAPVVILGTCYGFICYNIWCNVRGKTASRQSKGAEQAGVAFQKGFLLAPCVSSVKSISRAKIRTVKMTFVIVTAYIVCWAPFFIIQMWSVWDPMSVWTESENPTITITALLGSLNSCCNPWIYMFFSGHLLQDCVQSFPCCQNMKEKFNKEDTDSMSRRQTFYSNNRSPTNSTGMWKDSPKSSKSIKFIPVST
As to the kind of experiment: Vasopressin binding in Chinese Hamster Ovary cell membranes expressing human vasopressin V1a subtype receptors. As to conditions: 100 nM, CHO cell membranes, [3H]Manning ligand, values without parentheses. A digest of the protocol: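 Displacement of [3H]Manning ligand (8 nM working solution) from human V1a receptors in CHO cell membranes, 25–50 μg protein per well. Incubation ran 60 min at room temperature in 50 mM Tris-HCl pH 7.4 with protease inhibitors, followed by filtration and scintillation counting. Results are given as IC50 or percent inhibition.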
For the compound `COc1cc(-c2ccccc2C)c(Cl)cc1C(=O)N1Cc2ccc(C(=O)NCCCn3ccnc3)n2Cc2ccccc21` [Example 129, 10-[(6-Chloro-3-methoxy-2′-methyl[1,1′-biphenyl]-4-yl)carbonyl]-N-[3-(1H-imidazol-1-yl)propyl]-10,11-dihydro-5H-pyrrolo[2,1-c][1,4]benzodiazepine-3-carboxamide], the inhibition at 0.1 µM worked out at 6%.
For the compound `COc1cccc(-c2ccc(C(=O)N3Cc4ccc(C(=O)N5CC[C@@H](N(C)C)C5)n4Cc4ccccc43)cc2OC)c1` [Example 283, {10-[(2,3′-Dimethoxy[1,1′-biphenyl]-4-yl)carbonyl]-10,11-dihydro-5H-pyrrolo[2,1-c][1,4]benzodiazepin-3-yl}[(3R)-3-(dimethylamino)pyrrolidinyl]methanone], the “V1a % inhibition @ 100 nM” value stood at 40%.
As to `Cc1ccccc1-c1ccc(C(=O)N2Cc3ccc(C(=O)NCCN4CCCCC4)n3Cc3ccccc32)cc1` [Example 153, 10-[(2′-Methyl[1,1′-biphenyl]-4-yl)carbonyl]-N-[2-(1-piperidinyl)ethyl]-10,11-dihydro-5H-pyrrolo[2,1-c][1,4]benzodiazepine-3-carboxamide], the inhibition at 0.1 µM is 50%.
Regarding `COc1cc(C(=O)N2Cc3ccc(C(=O)NCCCn4ccnc4)n3Cc3ccccc32)ccc1-c1ccccc1C` [Example 128, N-[3-(1H-Imidazol-1-yl)propyl]-10-[(2-methoxy-2′-methyl[1,1′-biphenyl]-4-yl)carbonyl]-10,11-dihydro-5H-pyrrolo[2,1-c][1,4]benzodiazepine-3-carboxamide], the inhibition at 0.1 µM worked out at 18%.
On to `Cc1ccccc1-c1ccc(C(=O)N2Cc3ccc(C(=O)N4CCC(N5CCCCC5)CC4)n3Cc3ccccc32)cc1C` [Example 113, {10-[(2-Methyl-2′-methyl[1,1′-biphenyl]-4-yl)carbonyl]-10,11-dihydro-5H-pyrrolo[2,1-c][1,4]benzodiazepin-3-yl}[4-(1-piperidinyl)-1-piperidinyl]methanone], for which the inhibition at 0.1 µM was determined as 45%.
Regarding `COc1cccc(-c2cc(OC)c(C(=O)N3Cc4ccc(C(=O)N5CCC[C@H]5CN5CCCC5)n4Cc4ccccc43)cc2Cl)c1` [Example 268, {10-[(6-Chloro-3,3′-dimethoxy[1,1′-biphenyl]-4-yl)carbonyl]-10,11-dihydro-5H-pyrrolo[2,1-c][1,4]benzodiazepin-3-yl}[(2S)-2-(1-pyrrolidinylmethyl)pyrrolidinyl]methanone], the “V1a % inhibition @ 100 nM” value stood at 6%.
In the case of `COc1cccc(-c2ccc(C(=O)N3Cc4ccc(C(=O)NCCCn5ccnc5)n4Cc4ccccc43)cc2C)c1` [Example 125, N-[3-(1H-Imidazol-1-yl)propyl]-10-[(3′-methoxy-2-methyl[1,1′-biphenyl]-4-yl)carbonyl]-10,11-dihydro-5H-pyrrolo[2,1-c][1,4]benzodiazepine-3-carboxamide], the inhibition at 0.1 µM came out at 10%.
With `Cc1cc(C(=O)N2Cc3ccc(C(=O)N(CCCN(C)C)CCCN(C)C)n3Cc3ccccc32)ccc1-c1ccccc1C(F)(F)F` [Example 3, 10-[(2-Methyl-2′-trifluoromethyl-[1,1′-biphenyl]-4-yl)-carbonyl]-10,11-dihydro-5H-pyrrolo[2,1-c][1,4]benzodiazepine-3-carboxylic acid bis-(3-dimethylamino-propyl)-amide], the inhibition at 0.1 µM is -8%.
The same measure, in the same setting: the value for `Cc1cc(C(=O)N2Cc3ccc(C(=O)N4CCC(N5CCCC5)CC4)n3Cc3ccccc32)ccc1-c1ccccc1C(F)(F)F` [Example 148, (10-{[2-Methyl-2′-(trifluoromethyl)[1,1′-biphenyl]-4-yl]carbonyl}-10,11-dihydro-5H-pyrrolo[2,1-c][1,4]benzodiazepin-3-yl)[4-(1-pyrrolidinyl)-1-piperidinyl]methanone] was -9%; that for `COc1cccc(-c2ccc(C(=O)N3Cc4ccc(C(=O)N5CCC(N6CCCC6)CC5)n4Cc4ccccc43)cc2OC)c1` [Example 146, {10-[(2,3′-Dimethoxy[1,1′-biphenyl]-4-yl)carbonyl]-10,11-dihydro-5H-pyrrolo[2,1-c][1,4]benzodiazepin-3-yl}[4-(1-pyrrolidinyl)-1-piperidinyl]methanone] was 37%.
Still for that read-out and setting: the result for `Cc1cc(C(=O)N2Cc3ccc(C(=O)N4CCC(N5CCCCC5)CC4)n3Cc3ccccc32)ccc1-c1ccccc1C(F)(F)F` [Example 122, {10-[(2-Methyl-2′-(trifluoromethyl) -[1,1′-biphenyl]-4-yl)carbonyl]-10,11-dihydro-5H -pyrrolo[2,1-c][1,4]benzodiazepin-3-yl}[4-(1-piperidinyl)-1-piperidinyl]methanone] reads 8%.
Regarding `Cc1cc(C(=O)N2Cc3ccc(C(=O)NCCCN(C)C)n3Cc3ccccc32)ccc1-c1ccccc1C(F)(F)F` [Example 84, N-[3-(Dimethylamino)propyl]-10-{[2-methyl-2′-(trifluoromethyl)[1,1′-biphenyl]-4-yl]carbonyl}-10,11-dihydro-5H-pyrrolo[2,1-c][1 .4]benzodiazepine-3-carboxamide], the “V1a % inhibition @ 100 nM” value is given as 1%.
As for `COc1cccc(-c2ccc(C(=O)N3Cc4ccc(C(=O)N5CCC(N6CCCCC6)CC5)n4Cc4ccccc43)cc2C)c1` [Example 114, {10-[(2-Methyl-3′-methoxy[1,1′-biphenyl]-4-yl)carbonyl]-10,11-dihydro-5H-pyrrolo[2,1-c][1,4]benzodiazepin-3-yl}[4-(1-piperidinyl)-1-piperidinyl]methanone], the inhibition at 0.1 µM is 11%.
Regarding `COc1cccc(-c2ccc(C(=O)N3Cc4ccc(C(=O)NCCCn5ccnc5)n4Cc4ccccc43)cc2OC)c1` [Example 133, 10-[(2,3′-Dimethoxy[1,1′-biphenyl]4-yl)carbonyl]-N-[3-(1H-imidazol-1-yl)propyl]-10,11-dihydro-5H-pyrrolo[2,1-c][1,4]benzodiazepine-3-carboxamide], the inhibition at 0.1 µM worked out at 20%.
With `Cc1ccccc1-c1ccc(C(=O)N2Cc3ccc(C(=O)N4CCC[C@H]4CN4CCCC4)n3Cc3ccccc32)cc1C` [Example 260, {10-[(2,2′-Dimethyl[1,1′-biphenyl]-4-yl)carbonyl]-10,11-dihydro-5H-pyrrolo[2,1-c][1,4]benzodiazepin-3-yl}[(2S)-2-(1-pyrrolidinylmethyl)pyrrolidinyl]methanone], the “V1a % inhibition @ 100 nM” value was 55%.
Take `O=C(c1ccc2n1Cc1ccccc1N(C(=O)c1ccc(-c3cccc4ccccc34)cc1Cl)C2)N1CCC(N2CCCC2)CC1` [Example 147, {10-[2-Chloro-4-(1-naphthyl)benzoyl]-10,11-dihydro-5H-pyrrolo[2,1-c][1,4]benzodiazepin-3-yl}[4-(1-pyrrolidinyl)-1-piperidinyl]methanone]: the inhibition at 0.1 µM is 3%.
`COc1cc(C(=O)N2Cc3ccc(C(=O)N4CCC[C@H]4CN4CCCC4)n3Cc3ccccc32)ccc1-n1c(C)ccc1C` [Example 321, {10-[4-(2,5-Dimethyl-1H-pyrrol-1-yl)-3-methoxybenzoyl]-10,11-dihydro-5H-pyrrolo[2,1-c][1,4]benzodiazepin-3-yl}[(2S)-2-(1-pyrrolidinylmethyl)pyrrolidinyl]methanone]: the “V1a % inhibition @ 100 nM” value turned out to be 5%.
As to `COc1ccccc1-c1ccc(C(=O)N2Cc3ccc(C(=O)N4CCC(N5CCCC5)CC4)n3Cc3ccccc32)cc1` [Example 140, {10-[(2′-Methoxy[1,1′-biphenyl]-4-yl)carbonyl]-10,11-dihydro-5H-pyrrolo[2,1-c][1,4]benzodiazepin-3-yl}[4-(1-pyrrolidinyl)-1-piperidinyl]methanone], the inhibition at 0.1 µM turned out to be 24%.
The same measure, in the same setting: the result for `COc1cc(C(=O)N2Cc3ccc(C(=O)N4CCC(N5CCCC5)CC4)n3Cc3ccccc32)ccc1-c1ccccc1C` [Example 142, {10-[(2-Methoxy-2′-methyl[1,1′-biphenyl]-4-yl)carbonyl]-10,11-dihydro-5H-pyrrolo[2,1-c][1,4]benzodiazepin-3-yl}[4-(1-pyrrolidinyl)-1-piperidinyl]methanone] reads 46%.
As to `COc1ccccc1-c1ccc(C(=O)N2Cc3ccc(C(=O)N4CCC[C@H]4CN4CCCC4)n3Cc3ccccc32)cc1C` [Example 259, {10-[(2′-Methoxy-2-methyl[1,1′-biphenyl]-4-yl)carbonyl]-10,11-dihydro-5H-pyrrolo[2,1-c][1,4]benzodiazepin-3-yl}[(2S)-2-(1-pyrrolidinylmethyl)pyrrolidinyl]methanone], the “V1a % inhibition @ 100 nM” value stood at 21%.
The same measure, in the same setting: the value for `COC(=O)c1ccc2c(c1)N(C(=O)c1ccc(-c3ccccc3C(F)(F)F)c(C)c1)Cc1cccn1C2` [Example 26, Methyl 10-{[2-methyl-2′-trifluoromethyl-[1,1′-biphenyl]-4-yl]carbonyl}-10,11-dihydro-5H-pyrrolo[2,1-c][1.4]benzodiazepine-8-carboxylate] was −3%.
Consider `COc1ccccc1-c1ccc(C(=O)N2Cc3ccc(C(=O)NCCN4CCCCC4)n3Cc3ccccc32)cc1C` [Example 149, 10-[(2′-Methoxy-2-methyl[1,1′-biphenyl]-4-yl)carbonyl]-N-[2-(1-piperidinyl)ethyl]-10,11-dihydro-5H-pyrrolo[2,1-c][1,4]benzodiazepine-3-carboxamide], for which the inhibition at 0.1 µM was 17%.
`COc1cccc(-c2ccc(C(=O)N3Cc4ccc(C(=O)N5CCC(N6CCCCC6)CC5)n4Cc4ccccc43)cc2OC)c1` [Example 120, {10-[(2,3′-Dimethoxy-[1,1′-biphenyl]-4-yl)carbonyl]-10,11-dihydro-5H-pyrrolo[2,1-c][1,4]benzodiazepin-3-yl}[4-(1-piperidinyl)-1-piperidinyl]methanone]: the inhibition at 0.1 µM came to 20%.
With `COc1cccc(-c2ccc(C(=O)N3Cc4ccc(C(=O)N5CCC[C@H]5CN5CCCC5)n4Cc4ccccc43)cc2OC)c1` [Example 270, {10-[(2,3′-Dimethoxy[1,1′-biphenyl]-4-yl)carbonyl]-10,11-dihydro-5H-pyrrolo[2,1-c][1,4]benzodiazepin-3-yl}[(2S)-2-(1-pyrrolidinylmethyl)pyrrolidinyl]methanone], the “V1a % inhibition @ 100 nM” value was 40%.

Broadly, the inhibition is the change of the read-out against control, counted positive when it falls.
